# Test system: T cell blast formation in human blood
# Experiment: In vitro inhibition of T cell blast formation in human blood (human whole blood blast formation, PHA stimulated, flow cytometry)
# Assay type: cell-based
# Conditions: 72 hours, mean where multiple measurements
# Protocol: Cells are collected after a 72 hours culture period at 37° C., supernatant is removed by centrifugation and red blood cells are lysed by a hypotonic buffer. The remaining white blood cells are collected in PBS containing propidium iodide. The blast formation is analyzed using a benchtop flow cytometer (Cytoron, Ortho) equipped with an argon-ion laser. […] When multiple measurements were performed, a mean value was calculated for the percentage inhibition of T cell blast formation.
# [1] = Test Dose 1 × 10^−6 (unit not given)
# [2] = Test Dose 3 × 10^−7 (unit not given)
# [3] = Test Dose 1 × 10^−7 (unit not given)
# [4] = Test Dose 1 × 10^−5 (unit not given)
SMILES,% Inhibition of T cell blast formation [1],% Inhibition of T cell blast formation [2],other results
O=C(Nc1ccc(C(Nc2cccc(Cl)c2)c2ccccc2)cc1)C1CC(c2cccnc2)=NO1 (stereo not drawn) [Compound 216],70%,–,–
CC(C)NC(c1ccccc1)c1ccc(NC(=O)C2CC(c3cccnc3)=NO2)cc1 (stereo not drawn) [Compound 100],35%,–,–
Cc1ccc(CNC(=O)c2ccc(NC(=O)C3CC(c4cccnc4)=NO3)cc2)cc1 (stereo not drawn) [Compound 273],62%,–,–
CCCC(=O)NC(c1ccccc1)c1ccc(NC(=O)C2CC(c3cccnc3)=NO2)cc1 (stereo not drawn) [Compound 156],56%,–,–
CN1N=C(c2ccc(NC(=O)C3CC(c4cccnc4)=NO3)cc2)CC1c1ccccc1 (stereo not drawn) [Compound 459],77%,–,–
O=C(Nc1ccc(-c2noc(-c3ccccc3)n2)cc1)C1CC(c2cccnc2)=NO1 (stereo not drawn) [Compound 452],79%,–,–
O=C(Nc1ccc(C(C(=O)NCCN2CCOCC2)c2ccccc2)cc1)C1CC(c2cccnc2)=NO1 (stereo not drawn) [Compound 325],–,43%,–
O=C(NCc1ccc2c(c1)OCO2)c1ccc(NC(=O)C2CC(c3cccnc3)=NO2)cc1 (stereo not drawn) [Compound 295],–,35%,–
NC(=O)C(c1ccccc1)c1ccc(NC(=O)C2CC(c3cccnc3)=NO2)cc1 (stereo not drawn) [Compound 312],93%,–,–
O=C(c1ccc(NC(=O)C2CC(c3cccnc3)=NO2)cc1)c1ccc(OC(F)(F)F)cc1 (stereo not drawn) [Compound 384],–,68%,–
COc1cccc(CNC(=O)c2ccc(NC(=O)C3CC(c4cccnc4)=NO3)cc2)c1 (stereo not drawn) [Compound 272],67%,–,–
"O=C(Nc1ccc(C(O)(c2ccccc2)c2ccccn2)cc1)C1CC(c2cccnc2)=NO1 (single isomer, unassigned) [Compound 68]",61%,–,–
CN1CCC(CNC(c2ccccc2)c2ccc(NC(=O)C3CC(c4cccnc4)=NO3)cc2)CC1 (stereo not drawn) [Compound 103],82%,–,–
COC(=O)OC(C#N)(c1ccccc1)c1ccc(NC(=O)C2CC(c3cccnc3)=NO2)cc1 (stereo not drawn) [Compound 524],81%,–,–
O=C(c1ccc(NC(=O)C2CC(c3cccnc3)=NO2)cc1)c1ccccc1Cl (stereo not drawn) [Compound 14],78%,–,–
COc1cc(C(=NO)c2ccc(NC(=O)C3CC(c4cccnc4)=NO3)cc2)cc(OC)c1OC (stereo not drawn) [Compound 436],–,78%,–
COc1ccccc1C(=NO)c1ccc(NC(=O)C2CC(c3cccnc3)=NO2)cc1 (stereo not drawn) [Compound 434],–,–,% Inhibition of T cell blast formation [3]: 83%
COc1ccccc1C(O)c1ccc(NC(=O)C2CC(c3cccnc3)=NO2)cc1 (stereo not drawn) [Compound 409],–,88%,–
O=C(c1ccc(NC(=O)C2CC(c3cccnc3)=NO2)cc1)c1cccs1 (stereo not drawn) [Compound 490],58%,–,–
Cn1cc(C(=O)c2ccc(NC(=O)C3CC(c4cccnc4)=NO3)cc2)cn1 (stereo not drawn) [Compound 386],–,38%,–
CN1N=C(c2ccccc2)CC1c1ccc(NC(=O)C2CC(c3cccnc3)=NO2)cc1 (stereo not drawn) [Compound 457],–,67%,–

SMILES,% Inhibition of T cell blast formation [1],% Inhibition of T cell blast formation [2],other results
O=C(Cc1ccc(NC(=O)C2CC(c3cccnc3)=NO2)cc1)Nc1ccccc1 (stereo not drawn) [Compound 451],–,80%,–
CC(C#N)(c1ccc(F)cc1)c1ccc(NC(=O)C2CC(c3cccnc3)=NO2)cc1F (stereo not drawn) [Compound 39],67%,–,–
O=C(Nc1cccnc1)c1ccc(NC(=O)C2CC(c3cccnc3)=NO2)cc1 (stereo not drawn) [Compound 263],59%,–,–
CN(C)C(=O)c1ccc(CNC(=O)c2ccc(NC(=O)C3CC(c4cccnc4)=NO3)cc2)cc1 (stereo not drawn) [Compound 426],82%,65%,–
O=C(NCc1cccc(C(F)(F)F)c1)c1ccc(NC(=O)C2CC(c3cccnc3)=NO2)cc1 (stereo not drawn) [Compound 288],53%,–,–
O=C(Nc1ccc(C(=NO)c2cnc3ccccc3c2)cc1)C1CC(c2cccnc2)=NO1 (stereo not drawn) [Compound 432],65%,–,–
O=C(c1ccncc1)c1ccc(NC(=O)C2CC(c3cccnc3)=NO2)cc1 (stereo not drawn) [Compound 388],–,–,% Inhibition of T cell blast formation [3]: 74%
"N#CC(OC(N)=O)(c1ccccc1)c1ccc(NC(=O)C2CC(c3cccnc3)=NO2)cc1 (racemic) [Compound 75, (±)-[cyano[4-[[[4,5-dihydro-3-(3-pyridinyl)-5-isoxazolyl]carbonyl]amino]phenyl]phenylmethyl]carbamate]",–,67%,–
"O=C(Nc1ccc(C(O)c2ccccn2)cc1)C1CC(c2cccnc2)=NO1 (single isomer, unassigned) [Compound 525]",74%,–,–
O=C(Nc1ccc(Nc2ccccc2)cc1)C1CC(c2cccnc2)=NO1 (stereo not drawn) [Compound 377],85%,–,–
O=C(c1ccc(NC(=O)C2CC(c3cccnc3)=NO2)cc1)c1cccnc1 (stereo not drawn) [Compound 387],–,78%,–
O=C(/C=C/c1ccccc1)c1ccc(NC(=O)C2CC(c3cccnc3)=NO2)cc1 (racemic) [Compound 478],–,70%,–
O=C(/C=C/c1ccc2c(c1)OCO2)c1ccc(NC(=O)C2CC(c3cccnc3)=NO2)cc1 (racemic) [Compound 469],–,65%,–
Cc1ccccc1/C=C/C(=O)c1ccc(NC(=O)C2CC(c3cccnc3)=NO2)cc1 (racemic) [Compound 475],–,56%,–
"NC(c1ccccc1)c1ccc(NC(=O)[C@@H]2CC(c3cccnc3)=NO2)cc1 (stereo partly drawn) [Compound 206, [5S-(B)]-N-[4-(aminophenylmethyl)phenyl]4,5-dihydro-3-(3-pyridinyl)-5-isoxazolecarboxamide]",66%,–,–
"CC(C)OC(=O)OC(c1ccccc1)c1ccc(NC(=O)[C@@H]2CC(c3cccnc3)=NO2)cc1 (stereo partly drawn) [Compound 508, [5S(A)]-[4-[[[4,5-dihydro-3-(3-pyridinyl)-5-isoxazolyl]carbonyl]amino]phenyl]phenylmethyl 1-methylethyl carbonic acid (ester)]",–,70%,–
O=C(Nc1ccc(C(O)c2ccc(F)cc2F)cc1)C1CC(c2cccnc2)=NO1 (stereo not drawn) [Compound 408],–,71%,–
Cc1cccc(NC(c2ccccc2)c2ccc(NC(=O)C3CC(c4cccnc4)=NO3)cc2)c1C (stereo not drawn) [Compound 175],42%,–,–
O=C(NCc1ccc(F)cc1)c1ccc(NC(=O)C2CC(c3cccnc3)=NO2)cc1 (stereo not drawn) [Compound 270],71%,–,–
COc1ccc(OC)c(C(=NO)c2ccc(NC(=O)C3CC(c4cccnc4)=NO3)cc2)c1 (stereo not drawn) [Compound 440],–,–,% Inhibition of T cell blast formation [3]: 77%
CC(C#N)(c1ccccc1)c1ccc(NC(=O)C2CC(c3cccnc3)=NO2)cc1 (stereo not drawn) [Compound 45],78%,–,–

SMILES,% Inhibition of T cell blast formation [1],% Inhibition of T cell blast formation [2],other results
CN(C)c1ccc(CNC(=O)c2ccc(NC(=O)C3CC(c4cccnc4)=NO3)cc2)cc1 (stereo not drawn) [Compound 286],–,49%,–
CCCCOC(c1ccccc1)c1ccc(NC(=O)C2CC(c3cccnc3)=NO2)cc1.Cl (stereo not drawn) [Compound 417],42%,–,–
O=C(Nc1ccc(C(Nc2cccc(F)c2)c2ccccc2)cc1)C1CC(c2cccnc2)=NO1 (stereo not drawn) [Compound 214],62%,–,–
O=C(NCCc1ccccc1)c1ccc(NC(=O)C2CC(c3cccnc3)=NO2)cc1 (stereo not drawn) [Compound 258],59%,–,–
O=C(Nc1ccc(C(NC2CC2)c2ccccc2)cc1)C1CC(c2cccnc2)=NO1 (stereo not drawn) [Compound 90],33%,–,–
Cn1ncc2ccc(CNC(c3ccccc3)c3ccc(NC(=O)C4CC(c5cccnc5)=NO4)cc3)cc21 (stereo not drawn) [Compound 94],44%,–,–
O=C(NCCc1ccco1)c1ccc(NC(=O)C2CC(c3cccnc3)=NO2)cc1 (stereo not drawn) [Compound 268],58%,–,–
O=C(Nc1ccc(Sc2ccccc2)cc1)C1CC(c2cccnc2)=NO1 (stereo not drawn) [Compound 374],–,–,% Inhibition of T cell blast formation [4]: 85%
"NC(c1ccccc1)c1ccc(NC(=O)[C@@H]2CC(c3cccnc3)=NO2)cc1 (stereo partly drawn) [Compound 205, [5S-(A)]-N-[4-(aminophenylmethyl)phenyl]4,5-dihydro-3-(3-pyridinyl)-5-isoxazolecarboxamide]",73%,–,–
CCOC(=O)NC(c1ccccc1)c1ccc(NC(=O)C2CC(c3cccnc3)=NO2)cc1 (stereo not drawn) [Compound 131],95%,–,–
CN1CCC(NC(c2ccccc2)c2ccc(NC(=O)C3CC(c4cccnc4)=NO3)cc2)CC1 (stereo not drawn) [Compound 102],66%,–,–
O=C(Nc1ccc(C(=NO)c2cccc(OC(F)(F)F)c2)cc1)C1CC(c2cccnc2)=NO1 (stereo not drawn) [Compound 430],–,67%,–
Nc1cccc(F)c1CNC(=O)c1ccc(NC(=O)C2CC(c3cccnc3)=NO2)cc1 (stereo not drawn) [Compound 292],–,40%,–
O=C(CCc1ccccc1)c1ccc(NC(=O)C2CC(c3cccnc3)=NO2)cc1 (stereo not drawn) [Compound 380],67%,–,–
COC(C(N)=O)(c1ccccc1)c1ccc(NC(=O)C2CC(c3cccnc3)=NO2)cc1 (stereo not drawn) [Compound 442],75%,–,–
O=C(Nc1cccc2ccccc12)c1ccc(NC(=O)C2CC(c3cccnc3)=NO2)cc1 (stereo not drawn) [Compound 266],–,–,% Inhibition of T cell blast formation [4]: 85%
CC(=O)OCC(C#N)(c1ccccc1)c1ccc(NC(=O)C2CC(c3cccnc3)=NO2)cc1 (stereo not drawn) [Compound 413],85%,–,–
CN(C)Cc1csc(NC(=O)C(c2ccccc2)c2ccc(NC(=O)C3CC(c4cccnc4)=NO3)cc2)n1 (stereo not drawn) [Compound 314],–,58%,–
CN1CCC(N(C)CC(=O)NC(c2ccccc2)c2ccc(NC(=O)C3CC(c4cccnc4)=NO3)cc2)CC1 (stereo not drawn) [Compound 146],95%,–,–
COc1ccc(/C=C/C(=O)c2ccc(NC(=O)C3CC(c4cccnc4)=NO3)cc2)c(C)c1C (racemic) [Compound 479],85%,–,–

# Source: patent US7414048B2, “4,5-dihydro-isoxazole derivatives and their pharmaceutical use” (Janssen Pharmaceutica, N.V., priority 1998, dated 2008)
